This note sets out measurements from patent US11116721B2, “Pharmaceutical formulations comprising 4-{(1R)-2-[(6-{2-[(2,6-dichlorobenzyl)oxy]ethoxy}hexyl)amino]-1-hydroxyethyl}-2-(hydroxymethyl) phenol” (Glaxo Group Limited, priority 2009, dated 2021).

The subject of one data set is COPD patients. Put plainly: Clinical pharmacology studies of Compound (I) in COPD patients (FEV1). The format is in vivo, human. The conditions noted are these: 100 mcg and 400 mcg, with lactose alone. From the text:
(§1) Compound (I) as the α-phenylcinnamate salt and the triphenylacetate salt has been studied in a number of clinical pharmacology studies, including single- and repeat-dose studies. In addition, these studies have evaluated Compound (I) with the excipients cellobiose octaacetate and magnesium stearate.
In COPD patients, treatment with 100 mcg and 400 mcg Compound (I) alpha-phenylcinnamate (with lactose alone) achieved a clinically relevant adjusted mean difference from placebo in weighted mean trough FEV1 (22 to 24 hrs) of >100 mL.

The test system of data set [1] is asthmatic patients. The data set is described as follows: Clinical pharmacology studies of Compound (I) in asthmatic patients (FEV1). The format is in vivo, human. The conditions noted are these: all doses of Compound (I).
Text: as §1
In one study in asthmatic patients 100 mcg of Compound (I) triphenylacetate formulated with lactose and magnesium stearate has shown a favourable onset of action.

Another data set has as its system beta-2 adrenoreceptor. Put plainly: Animal and human studies of Compound (I): bronchodilation and safety. The format is in vivo.
For data set [2], the system named is asthmatic patients. The data set is described as follows: Clinical pharmacology studies of Compound (II) in asthmatic patients (FEV1). It counts as in vivo, human. The conditions noted are these: doses of from 100 to 400 mcg. The source says: Compound (II) has been studied in a number of clinical pharmacology studies, including single- and repeat-dose studies and at a range of doses. In addition, these studies have evaluated Compound (II) with the excipients cellobiose octaacetate and magnesium stearate.

Data set [3] in a line: Studies of Compound (II) in animal models and humans. The format is in vivo.

Regarding `O=C(O)C(=Cc1ccccc1)c1ccccc1.OCc1cc([C@@H](O)CNCCCCCCOCCOCc2c(Cl)cccc2Cl)ccc1O` [Compound (I) alpha-phenylcinnamate, 4-{(1R)-2-[(6-{2-[(2,6-dichlorobenzyl)oxy]ethoxy}hexyl)amino]-1-hydroxyethyl}-2-(hydroxymethyl)phenol α-phenylcinnamate], the “adjusted mean difference from placebo in weighted mean trough FEV1 (22 to 24 hrs)” value with COPD patients is greater than 100 mL.

Regarding `OCc1cc([C@@H](O)CNCCCCCCOCCOCc2c(Cl)cccc2Cl)ccc1O` [Compound (I), 4-{(1R)-2-[(6-{2-[(2,6-dichlorobenzyl)oxy]ethoxy}hexyl)amino]-1-hydroxyethyl}-2-(hydroxymethyl)phenol], in the data set on asthmatic patients [1], the “improvement in trough (24-hour) FEV1 compared to placebo” value was “statistically and clinically significant improvement”. Further, in the data set with beta-2 adrenoreceptor, the bronchodilation result is given as “sustained bronchodilation over a 24 hour period” and the safety profile entry is “favourable safety profile”.

`C[C@@H]1CC2C3C[C@H](F)C4=CC(=O)C=C[C@]4(C)[C@@]3(F)[C@@H](O)C[C@]2(C)[C@@]1(OC(=O)c1ccco1)C(=O)SCF` (stereo partly drawn) [Compound (II), 6α, 9α-difluoro-17α-[(2-furanylcarbonyl)oxy]-11β-hydroxy-16α-methyl-3-oxo-androsta-1,4-diene-17β-carbothioic acid S-fluoromethyl ester]: the “improvement in trough (24-hour) FEV1 compared to placebo” value in the data set on asthmatic patients [2] was “statistically and clinically significant improvement”. Moreover, the “duration of action (inhaled glucocorticosteroid)” value in data set [3] is “long acting”.
